Data from patent publication US6720346B2, “Thiazole benzamide derivatives and pharmaceutical compositions for inhibiting cell proliferation” (Agouron Pharmaceuticals, Inc., priority 2001, dated 2004).
Where a name gives a salt, the structure may show the parent alone.

Legend:
CDK2/cyclin A = biological target: T1, CDK2/cyclin A (Homo sapiens, UniProt P24941); assay: Inhibition of CDK2/cyclin A retinoblastoma kinase activity (Ki; % inhibition); format: biochemical; settings: for Ki: apparent Ki, CDK2/cyclin A, Rb substrate
T1 construct: made in house; host or cells: CDK2: insect cells (baculovirus); cyclin A: E. coli
Description: (§1) Cyclin-dependent kinase activity was measured by quantifying the enzyme-catalyzed, time-dependent incorporation of radioactive phosphate from [^32P]ATP or [^33P]ATP into a protein substrate. Unless noted otherwise, assays were performed in 96-well plates in a total volume of 50 μL, in the presence of 10 mM HEPES (N-[2-hydroxyethyl]piperazine-N′-[2-ethanesulfonic acid]) (pH 7.4), 10 mM MgCl2, 25 μM adenosine triphosphate (ATP), 1 mg/mL ovalbumin, 5 μg/mL leupeptin, 1 mM dithiothreitol, 10 mM β-glycerophosphate, 0.1 mM sodium vanadate, 1 mM sodium fluoride, 2.5 mM ethylene glycol-bis(β-aminoethyl ether)-N,N,N′N′-tetraacetic acid (EGTA), 2% (v/v) dimethylsulfoxide, and 0.03-0.4 μCi [^32/33P]ATP per reaction. Reactions were initiated with enzyme, incubated at 30° C., and terminated after 20 minutes by the addition of ethylenediaminetetraacetic acid (EDTA) to 250 mM. The phosphorylated substrate was then captured on a nitrocellulose or phosphocellulose membrane using a 96-well filtration manifold, and unincorporated radioactivity was removed by repeated washing with 0.85% phosphoric acid. Radioactivity was quantified by exposing the dried membranes to a phosphorimager.
(§2) Compounds from combinatorial libraries were screened from 96-well plates for % inhibition of CDK activity at 30 nM theoretical compound concentration. Inhibition was measured relative to control wells that contained all reaction components including 2% (v/v) DMSO but no compound, after subtraction of background radioactivity measured in the absence of enzyme. Apparent Ki values of discrete compounds were measured by assaying enzyme activity in the presence of different inhibitor compound concentrations and subtracting the background radioactivity measured in the absence of enzyme. The kinetic parameters (kcat, Km for ATP) were measured for each enzyme under the usual assay conditions by determining the dependence of initial rates on ATP concentration. Inhibition data were fit to an equation for competitive inhibition using Kaleidagraph (Synergy Software), or were fit to an equation for competitive tight-binding inhibition using the software KineTic (BioKin, Ltd.).
CDK2 was purified using published methodology (Rosenblatt et al., “Purification and Crystallization of Human Cyclin-dependent Kinase 2,” J. Mol. Biol., 230, 1993, pp. 1317-1319) from insect cells that had been infected with a baculovirus expression vector. […] A complex of CDK2 and proteolyzed cyclin A was prepared and purified by gel filtration. The substrate for this assay was the same Rb substrate fragment used for the CDK4 assays, and the methodology of the CDK2/delta cyclin A and the CDK4/delta cyclin D3 assays was essentially the same, except that CDK2 was present at 10 nM or 19 nM. The duration of the assay was 60 or 75 minutes, during which the time-dependence of product formation was linear and initial rate conditions were met.

human CDK4/cyclin D3 = biological target: T2, human CDK4/cyclin D3 (Homo sapiens, UniProt P11802); assay: Inhibition of CDK4/cyclin D retinoblastoma kinase activity (Ki; % inhibition); format: biochemical; settings: for Ki: apparent Ki, CDK4/cyclin D3, Rb substrate
T2 construct: made in house; host or cells: insect cells co-infected with baculovirus vectors
Description: as §1, §2
A complex of human CDK4 and genetically truncated (1-264) cyclin D3 was purified using traditional biochemical chromatographic techniques from insect cells that had been co-infected with the corresponding baculovirus expression vectors (see e.g., Meijer and Kim, “Chemical Inhibitors of Cyclin-Dependent Kinases,” Methods in Enzymol., 283 (1997), pp. 113-128.). The enzyme complex (5 nM) was assayed with 0.3-0.5 μg of purified recombinant retinoblastoma protein fragment (Rb) as a substrate. The engineered Rb fragment (residues 386-928 of the native retinoblastoma protein; 62.3 kDa) contains the majority of the phosphorylation sites found in the native 106-kDa protein, as well as a tag of six histidine residues for ease of purification. Phosphorylated Rb substrate was captured by microfiltration on a nitrocellulose membrane and quantified using a phosphorimager as described above. For measurement of tight-binding inhibitors, the assay duration was extended to 60 minutes, during which the time-dependence of product formation was linear and initial rate conditions were met.

HCT-116 cell line = assay: Inhibition of cell growth, MTT tetrazolium salt assay; format: cell-based; settings: for IC50: Homo sapiens, HCT-116, 120 h, MTT, three to five days
Description: Inhibition of cell growth was measured using the tetrazolium salt assay, which is based on the ability of viable cells to reduce 3-(4,5-dimethylthiazol-2-yl)-2,5-[2H]-diphenyltetrazolium bromide (MTT) to formazan (Mossman, Journal of Immunological Methods, 65, (1983), pp. 55-58). The water-insoluble purple formazan product was then detected spectrophotometrically. The HCT-116 cell line was used as a representative cancer cell line and grown in 96-well plates. Cells were plated in McCoy's 5A Medium at a volume of 135 μl/well. Plates were incubated for four hours before addition of inhibitor compounds. Different concentrations of inhibitor compounds were added in 0.5% (v/v) dimethylsulfoxide (15 μL/well), and cells were incubated at 37° C. (5% CO2) for three to five days. At the end of the incubation, MTT was added to a final concentration of 0.2 mg/mL, and cells were incubated for 4 hours more at 37° C. After centrifugation of the plates and removal of medium, the absorbance of the formazan (solubilized in dimethylsulfoxide) was measured at 540 nm. The concentration of inhibitor compound causing 50% (IC50) or 90% ([…]) inhibition of growth was determined from the linear portion of a semi-log plot of inhibitor concentration versus percent inhibition. All results were compared to control cells treated only with 0.5% (v/v) dimethylsulfoxide.

T2 sequence (P11802 whole entry): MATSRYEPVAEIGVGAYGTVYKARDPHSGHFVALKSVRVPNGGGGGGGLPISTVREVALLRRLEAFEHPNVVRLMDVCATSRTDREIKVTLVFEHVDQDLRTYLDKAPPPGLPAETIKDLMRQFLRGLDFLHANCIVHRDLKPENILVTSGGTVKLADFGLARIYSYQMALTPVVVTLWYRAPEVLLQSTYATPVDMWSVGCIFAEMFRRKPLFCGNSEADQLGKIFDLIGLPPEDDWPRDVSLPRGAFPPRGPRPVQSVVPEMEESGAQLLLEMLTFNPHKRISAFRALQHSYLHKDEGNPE
T2 sequence (P30281 1-264 partner limits assumed): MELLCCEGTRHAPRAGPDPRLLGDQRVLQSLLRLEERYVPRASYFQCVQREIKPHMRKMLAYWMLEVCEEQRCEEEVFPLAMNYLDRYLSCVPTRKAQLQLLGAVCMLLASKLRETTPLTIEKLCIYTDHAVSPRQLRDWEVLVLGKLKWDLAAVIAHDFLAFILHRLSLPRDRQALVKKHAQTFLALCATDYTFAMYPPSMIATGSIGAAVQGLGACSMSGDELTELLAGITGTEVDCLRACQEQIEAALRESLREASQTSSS

Row | SMILES | Ki (CDK2/cyclin A) [nM] | Ki (human CDK4/cyclin D3) [nM] | IC50 (HCT-116 cell line) [nM] | CDK2 % Inhibition at 0.03 μM (CDK2/cyclin A; 0.03 μM compound) [%] | CDK4 % Inhibition at 0.03 μM (human CDK4/cyclin D3; 0.03 μM compound) [%] | HCT-116 % Inhibition at 0.1 μM (HCT-116 cell line; HCT-116 cells, 0.1 μM compound) [%] | HCT-116 % Inhibition at 0.25 μM (HCT-116 cell line; HCT-116 cells, 0.25 μM compound) [%]
1 | Nc1nc(Nc2ccc(C(=O)NC[C@@H]3CCCC[C@H]3O)cc2)sc1C(=O)c1c(F)cccc1F (relative stereo) [Example G350] | – | – | – | 4 | 9 | 24 | 41
2 | CN(C)CCNC(=O)c1ccc(Nc2nc(N)c(C(=O)c3c(F)cccc3F)s2)cc1Cl [C] | 170 | 27 | 210 | – | – | – | –
3 | CN(C)CCN1C(=O)c2ccc(Nc3nc(N)c(C(=O)c4c(F)cccc4F)s3)cc2C1=O [E, 5-[4-Amino-5-(2,6-difluoro-benzoyl)-thiazol-2-ylamino]-2-(2-dimethylamino-ethyl)-isoindole-1,3-dione] | 400 | 240 | – | – | – | – | –
4 | Nc1nc(Nc2ccc(C(=O)NCCN3CCOCC3)cc2)sc1C(=O)c1c(F)cccc1F [Example A1, 4-[4-Amino-5-(2,6-difluoro-benzoyl)-thiazol-2-ylamino]-N-(2-morpholin-4-yl-ethyl)-benzamide] | 140 | 27 | 750 | – | – | – | –
5 | CN(C)CCNC(=O)c1ccc(Nc2nc(N)c(C(=O)c3c(F)cccc3F)s2)cc1 [Example A4] | 230 | 16 | 190 | – | – | – | –
6 | CC(=O)N1CCC[C@H]1CNC(=O)c1ccc(Nc2nc(N)c(C(=O)c3c(F)cccc3F)s2)cc1 [Example A10, 4-[4-Amino-5-(2,6-difluoro-benzoyl)-thiazol-2S-ylamino]-N-(1-Acetyl-pyrrolidin-2S-ylmethyl)-benzamide] | 290 | 49 | 1600 | – | – | – | –
7 | CNC(C)(C)CNC(=O)c1ccc(Nc2nc(N)c(C(=O)c3c(F)cccc3F)s2)cc1 [Example A18, 4-{4-Amino-5-[1-(2,6-difluoro-phenyl)-methanoyl]-thiazol-2-ylamino}-N-(2-methyl-2-methylamino-propyl)-benzamide Acetic Acid Salt] | 190 | 6 | 920 | – | – | – | –
8 | CN(C)CCNC(=O)c1ccc(Nc2nc(N)c(C(=O)C34CC5CC(CC(C5)C3)C4)s2)cc1 [Example A58, 4-[5-(1-Adamantan-1-yl-methanoyl)-4-amino-thiazol-2-ylamino]-N-(2-dimethylamino-ethyl)-benzamide] | 3400 | 1000 | – | – | – | – | –
9 | Nc1nc(Nc2ccc(C(=O)NCCOCCO)cc2)sc1C(=O)c1c(Cl)cccc1Cl [Example B5, 4-[4-Amino-5-(2,6-dichloro-benzoyl)-thiazol-2-ylamino]-N-[2-(2-hydroxy-ethoxy)-ethyl]-benzamide] | 150 | 59 | – | – | – | – | –

More lines, main results first:

Row | Ki (CDK2/cyclin A) [nM] | Ki (human CDK4/cyclin D3) [nM] | IC50 (HCT-116 cell line) [nM] | CDK2 % Inhibition at 0.03 μM (CDK2/cyclin A; 0.03 μM compound) [%] | CDK4 % Inhibition at 0.03 μM (human CDK4/cyclin D3; 0.03 μM compound) [%] | SMILES | HCT-116 % Inhibition at 0.1 μM (HCT-116 cell line; HCT-116 cells, 0.1 μM compound) [%] | HCT-116 % Inhibition at 0.25 μM (HCT-116 cell line; HCT-116 cells, 0.25 μM compound) [%]
10 | 15 | 120 | 1100 | – | – | CN1[C@@H]2CC[C@@H](C2)[C@@H]1CNC(=O)c1ccc(Nc2nc(N)c(C(=O)c3c(F)cccc3F)s2)cc1 (relative stereo) [Example A76, 4-[4-Amino-5-(2,6-difluoro-benzoyl)-thiazol-2-ylamino]-N-(2-methyl-2-aza-bicyclo[2.2.1]hept-3-endo-ylmethyl)-benzamide] | – | –
11 | 7.5 | 15 | 220 | – | – | Cc1ccc(CNC(=O)c2ccc(Nc3nc(N)c(C(=O)c4c(F)cccc4F)s3)cc2)o1 [Example A6, 4-[4-Amino-5-(2,6-difluoro-benzoyl)-thiazol-2-ylamino]-N-(5-methyl-furan-2-ylmethyl)-benzamide] | – | –
12 | 61 | 26 | 410 | – | – | CC(C)OCCNC(=O)c1ccc(Nc2nc(N)c(C(=O)c3c(F)cccc3F)s2)cc1 [Example A7, 4-[4-Amino-5-(2,6-difluoro-benzoyl)-thiazol-2-ylamino]-N-(2-isopropoxy-ethyl)-benzamide] | – | –
13 | 54 | 5 | 740 | – | – | Nc1nc(Nc2ccc(C(=O)NC[C@@H]3CCCN3)cc2)sc1C(=O)c1c(F)cccc1F [Example A8, 4-[4-Amino-5-(2,6-difluoro-benzoyl)-thiazol-2-ylamino]-N-(pyrrolidin-2S-yl-methyl)-benzamide] | – | –
14 | 91 | 20 | 130 | – | – | CN(C)C(C)(C)CNC(=O)c1ccc(Nc2nc(N)c(C(=O)c3c(F)cccc3F)s2)cc1 [Example A12, 4-[4-Amino-5-(2,6-difluoro-benzoyl)-thiazol-2-ylamino]-N-(2-dimethylamino-2-methyl-propyl)-benzamide] | – | –
15 | 79 | 9 | 210 | – | – | Nc1nc(Nc2ccc(C(=O)NC3CCN(Cc4ccccc4)CC3)cc2)sc1C(=O)c1c(F)cccc1F [Example A13, 4-[4-Amino-5-(2,6-difluoro-benzoyl)-thiazol-2-ylamino]-N-(1-benzyl-piperidin-4-yl)-benzamide] | – | –
16 | 68 | 25 | 170 | – | – | CN(C)c1ccc(NC(=O)c2ccc(Nc3nc(N)c(C(=O)c4c(F)cccc4F)s3)cc2)cc1 [Example A16, 4-[4-Amino-5-(2,6-difluoro-benzoyl)-thiazol-2-ylamino]-N-(4-dimethylamino-phenyl)-benzamide] | – | –
17 | 64 | 105 | 110 | – | – | COc1ccc(C)c(NC(=O)c2ccc(Nc3nc(N)c(C(=O)c4c(F)cccc4F)s3)cc2)c1 [Example A19, 4-[4-Amino-5-(2,6-difluoro-benzoyl)-thiazol-2-ylamino]-N-(5-methoxy-2-methyl-phenyl)-benzamide] | – | –
18 | 6 | 5 | 170 | – | – | Nc1nc(Nc2ccc(C(=O)NC3Cc4ccccc4C3)cc2)sc1C(=O)c1c(F)cccc1F [Example A22, 4-[4-Amino-5-(2,6-difluoro-benzoyl)-thiazol-2-ylamino]-N-indan-2-yl-benzamide] | – | –
19 | 130 | 8 | 100 | – | – | CC(C)N(CCNC(=O)c1ccc(Nc2nc(N)c(C(=O)c3c(F)cccc3F)s2)cc1)C(C)C [Example A23, 4-[4-Amino-5-(2,6-difluoro-benzoyl)-thiazol-2-ylamino]-N-(2-diisopropylamino-ethyl)-benzamide] | – | –
20 | 100 | 94 | 160 | – | – | Nc1nc(Nc2ccc(C(=O)Nc3ccc(CCO)cc3)cc2)sc1C(=O)c1c(F)cccc1F [Example A24, 4-[4-Amino-5-(2,6-difluoro-benzoyl)-thiazol-2-ylamino]-N-[4-(2-hydroxy-ethyl)-phenyl]-benzamide] | – | –
21 | 66 | 41 | – | – | – | Nc1nc(Nc2ccc(C(=O)Nc3cccnc3)cc2)sc1C(=O)c1c(F)cccc1F [Example A27, 4-[4-Amino-5-(2,6-difluoro-benzoyl)-thiazol-2-ylamino]-N-(pyridin-3-yl)-benzamide] | – | –
